{"source": "patent US5047413A", "about": "(priority 1987, dated 1991)", "key": {"[1]": {"test_system": "urinary bladder", "details": "literature, background; cited from earlier work"}, "[2]": {"details": "M. Blau, U. Retzke, Zbl. Gynakol. 100 (1984); cited from earlier work"}, "[3]": {"test_system": "guinea pig ileum", "assay": "tissue or blood"}, "[4]": {"test_system": "guinea-pig urinary bladder muscle", "assay": "tissue or blood"}, "[5]": {"test_system": "guinea pig taenia coli", "assay": "tissue or blood", "details": "Cavia porcellus"}}, "note": "“Also recorded” adds a separate entry of the source. Read-outs that look alike come from different tables or passages of the source.", "data": [{"smiles": "CCCOC(C(=O)OC1CCN(C)CC1)(c1ccccc1)c1ccccc1", "note": "[propiverine, 1-methyl-4-piperidyl α,α-diphenyl-α-(n-propoxy)acetate]", "values": [{"measurement": "side effects (in words)", "setting": "[1]", "result": "not amenable to general use because of certain side effects"}, {"measurement": "therapeutic utility for the tone of the urinary bladder (in words)", "setting": "[1]", "result": "has shown therapeutic utility; also recorded: insufficiently effective in some patients"}, {"measurement": "effect on blood pressure (in words)", "setting": "[2]", "result": "lowering of the blood pressure"}, {"measurement": "predominating effect, neurotropic/spasmolytic versus myotropic/spasmolytic (in words)", "setting": "[3]", "result": "the undesired myotropic/spasmolytic effect predominates"}, {"measurement": "EC50", "setting": "[3]; Cavia porcellus, read-out: Neurotropic/spasmolytic activity, Ileum, Carbachol 50 ng/ml", "result": 0.059, "unit": "µg/mL"}, {"measurement": "myotropic/spasmolytic activity compared with papaverine (in words)", "setting": "[4]", "result": "reaches the potency of papaverine"}, {"measurement": "EC50", "setting": "[4]; Cavia porcellus, read-out: ED50 (myotropic/spasmolytic activity)", "result": 53, "unit": "µg/mL"}, {"measurement": "EC50", "setting": "[5]; read-out: ED50 (myotropic/spasmolytic activity)", "result": 2, "unit": "µg/mL"}, {"measurement": "EC50", "setting": "[5]; read-out: Myotropic/spasmolytic activity, Taenia coli, Barium 200 μg/ml (EC 50)", "result": 12, "unit": "µg/mL"}]}]}
